In brackets after ≈: the same amount, converted by molar mass.
Assays:
P. aeruginosa 125A = assay: MIC, CLSI broth microdilution in BD Phoenix AST Broth; type: cell-based, Pseudomonas aeruginosa; conditions: strain 125A
P. aeruginosa 125B = assay: as above; type: cell-based, Pseudomonas aeruginosa; conditions: strain 125B
P. aeruginosa 41A = assay: as above; type: cell-based, Pseudomonas aeruginosa; conditions: strain 41A
P. aeruginosa 41B = assay: as above; type: cell-based, Pseudomonas aeruginosa; conditions: strain 41B
P. aeruginosa PAO1 = assay: as above; type: cell-based, Pseudomonas aeruginosa
P. aeruginosa PAOUW = assay: as above; type: cell-based, Pseudomonas aeruginosa; conditions: strain PAOUW
P. aeruginosa PAOUW∆oprF = assay: as above; type: cell-based, Pseudomonas aeruginosa
P. aeruginosa PAOΔmexR = assay: as above; type: cell-based, Pseudomonas aeruginosa
P. aeruginosa PAOΔmexZ = assay: as above; type: cell-based, Pseudomonas aeruginosa; conditions: strain PAOΔmexZ
P. aeruginosa PAOΔoprM = assay: as above; type: cell-based, Pseudomonas aeruginosa
P. aeruginosa PAO1, WT = assay: MIC, E-test on MHA; type: cell-based; conditions: Pseudomonas aeruginosa, PAO1, read-out: MIC, E-test
[1] = system: PAO1 mutant MIN4_RW01_2, pmrB(F124S); assay: MIC, E-test on MHA; type: cell-based; conditions: Pseudomonas aeruginosa, PAO1, read-out: MIC, E-test
[2] = system: PAO1 mutant MIN4_RW01_4, pmrB(Y98N); assay: MIC, E-test on MHA; type: cell-based; conditions: Pseudomonas aeruginosa, PAO1, read-out: MIC, E-test
[3] = system: PAO1 mutant MIN8_3, pilZ(nt18InsT); assay: MIC, E-test on MHA; type: cell-based; conditions: Pseudomonas aeruginosa, PAO1, read-out: MIC, E-test
[4] = system: PAO1 mutant MIN8_4, pilZ(nt18InsT); assay: MIC, E-test on MHA; type: cell-based; conditions: Pseudomonas aeruginosa, PAO1, read-out: MIC, E-test
[5] = system: PAO1 mutant MIN16_3, nfxB(nt79∆14), pilB(N349K); assay: MIC, E-test on MHA; type: cell-based; conditions: Pseudomonas aeruginosa, PAO1, read-out: MIC, E-test
[6] = system: PAO1 mutant MIN32_1, mexR(R63H), pilB(N349K), PA0646(V316G); assay: MIC, E-test on MHA; type: cell-based; conditions: Pseudomonas aeruginosa, PAO1, read-out: MIC, E-test
[7] = Pseudomonas aeruginosa, agent alone, 37°C, 18–22 h, three biological replicates
[8] = antibiotic MIC alone vs with RW01 100 mg/L
[9] = antibiotic with RW01 at 100 mg/L
[10] = MIC of the antibiotic with fixed 100 mg/L RW01
[11] = strain PAO1, antibiotic with RW01 at 100 mg/L
[12] = strain PAOUWΔoprF (printed PAOΔoprF), antibiotic with RW01 at 100 mg/L
[13] = strain PAOΔmexR, antibiotic with RW01 at 100 mg/L
[14] = strain PAOΔoprM, antibiotic with RW01 at 100 mg/L

With `C[C@H]1c2cccc(O)c2C(=O)C2=C(O)[C@]3(O)C(=O)C(C(N)=O)=C(O)[C@@H](N(C)C)[C@@H]3[C@@H](O)[C@@H]21` [Doxycycline, doxycycline] the MIC (P. aeruginosa 125A; [7]) was 4 µg/mL, the “Potentiation (fold)” value (P. aeruginosa 125A; [8]) was 8 fold and the FICI (P. aeruginosa 125A; [9]) was 0.320. For the same compound, the FICI-determined effect (P. aeruginosa 125A; [9]) was “Synergy (synergistic effect if FICI is ≤0.5)”, the MIC (P. aeruginosa 125B; [7]) was 4 µg/mL and the “Antibiotic MIC + RW01 100 mg/L” value (P. aeruginosa 125B; [10]) was 0.5 µg/mL. For the same compound, the “Potentiation (fold)” value (P. aeruginosa 125B; [8]) was 8 fold, the FICI (P. aeruginosa 125B; [9]) was 0.320 and the FICI-determined effect (P. aeruginosa 125B; [9]) was “Synergy (synergistic effect if FICI is ≤0.5)”. For the same compound, the MIC (P. aeruginosa 41A; [7]) was 16 µg/mL, the “Antibiotic MIC + RW01 100 mg/L” value (P. aeruginosa 41A; [10]) was 2 µg/mL and the “Potentiation (fold)” value (P. aeruginosa 41A; [8]) was 8 fold. The FICI (P. aeruginosa 41A; [9]) was 0.223, the FICI-determined effect (P. aeruginosa 41A; [9]) was “Synergy (synergistic effect if FICI is ≤0.5)” and the MIC (P. aeruginosa 41B; [7]) was 16 µg/mL. For the same compound, the “Antibiotic MIC + RW01 100 mg/L” value (P. aeruginosa 41B; [10]) was 2 µg/mL, the “Potentiation (fold)” value (P. aeruginosa 41B; [8]) was 8 fold and the FICI (P. aeruginosa 41B; [9]) was 0.223. The FICI-determined effect (P. aeruginosa 41B; [9]) was “Synergy (synergistic effect if FICI is ≤0.5)”, the MIC (P. aeruginosa PAO1; Pseudomonas aeruginosa, PAO1, strain PAO1, agent alone, 37°C, 18–22 h, three biological replicates, read-out: MIC) was 16 µg/mL and the “Antibiotic MIC + RW01 100 mg/L” value (P. aeruginosa PAO1; strain PAO1, MIC of the antibiotic with fixed 100 mg/L RW01) was 1 µg/mL. The “Potentiation (fold)” value (P. aeruginosa PAO1; strain PAO1, antibiotic MIC alone vs with RW01 100 mg/L) was 16 fold, the FICI (P. aeruginosa PAO1; [11]) was 0.258 and the FICI-determined effect (P. aeruginosa PAO1; [11]) was “Synergy (synergistic effect if FICI is ≤0.5)”. For the same compound, the MIC (P. aeruginosa PAOUW; Pseudomonas aeruginosa, agent alone, 37°C, 18–22 h, three biological replicates, read-out: MIC) was 32 µg/mL, the “Antibiotic MIC + RW01 100 mg/L” value (P. aeruginosa PAOUW; [10]) was 4 µg/mL and the “Potentiation (fold)” value (P. aeruginosa PAOUW; [8]) was 8 fold. The FICI (P. aeruginosa PAOUW; [9]) was 0.223, the FICI-determined effect (P. aeruginosa PAOUW; [9]) was “Synergy (synergistic effect if FICI is ≤0.5)” and the MIC (P. aeruginosa PAOUW∆oprF; Pseudomonas aeruginosa, strain PAOUWΔoprF, agent alone, 37°C, 18–22 h, three biological replicates) was 16 µg/mL. The “Potentiation (fold)” value (P. aeruginosa PAOUW∆oprF; strain PAOUWΔoprF (printed PAOΔoprF), antibiotic MIC alone vs with RW01 100 mg/L) was 16 fold, the FICI (P. aeruginosa PAOUW∆oprF; [12]) was 0.160 and the FICI-determined effect (P. aeruginosa PAOUW∆oprF; [12]) was “Synergy (synergistic effect if FICI is ≤0.5)”. The “Antibiotic MIC + RW01 100 mg/L” value (P. aeruginosa PAOUW∆oprF; strain PAOUWΔoprF, MIC of the antibiotic with fixed 100 mg/L RW01) was 1 µg/mL, the MIC (P. aeruginosa PAOΔmexR; Pseudomonas aeruginosa) was 64 µg/mL and the “Antibiotic MIC + RW01 100 mg/L” value (P. aeruginosa PAOΔmexR; strain PAOΔmexR, MIC of the antibiotic with fixed 100 mg/L RW01) was 32 µg/mL. The “Potentiation (fold)” value (P. aeruginosa PAOΔmexR; strain PAOΔmexR, antibiotic MIC alone vs with RW01 100 mg/L) was 2 fold, the FICI (P. aeruginosa PAOΔmexR; [13]) was 0.598 and the FICI-determined effect (P. aeruginosa PAOΔmexR; [13]) was “Additivity (additive effect if 0.5 < FICI ≤ 1.0)”. For the same compound, the MIC (P. aeruginosa PAOΔmexZ; [7]) was 64 µg/mL, the “Antibiotic MIC + RW01 100 mg/L” value (P. aeruginosa PAOΔmexZ; [10]) was 4 µg/mL and the “Potentiation (fold)” value (P. aeruginosa PAOΔmexZ; [8]) was 16 fold. The FICI (P. aeruginosa PAOΔmexZ; [9]) was 0.160, the FICI-determined effect (P. aeruginosa PAOΔmexZ; [9]) was “Synergy (synergistic effect if FICI is ≤0.5)” and the MIC (P. aeruginosa PAOΔoprM; Pseudomonas aeruginosa) was 0.5 µg/mL. The “Antibiotic MIC + RW01 100 mg/L” value (P. aeruginosa PAOΔoprM; strain PAOΔoprM, MIC of the antibiotic with fixed 100 mg/L RW01) was 0.125 µg/mL, the “Potentiation (fold)” value (P. aeruginosa PAOΔoprM; strain PAOΔoprM, antibiotic MIC alone vs with RW01 100 mg/L) was 4 fold and the FICI (P. aeruginosa PAOΔoprM; [14]) was 0.348. The FICI-determined effect (P. aeruginosa PAOΔoprM; [14]) was “Synergy (synergistic effect if FICI is ≤0.5)”, the MIC (P. aeruginosa PAO1, WT) was 32 µg/mL (≈ 72 µM) and the MIC [1] was 64 µg/mL (≈ 144 µM). The MIC [2] was 64 µg/mL (≈ 144 µM), the MIC [3] was 128 µg/mL (≈ 288 µM) and the MIC [4] was 256 µg/mL (≈ 576 µM). The MIC [5] was 192 µg/mL (≈ 432 µM) and the MIC [6] was 256 µg/mL (≈ 576 µM).

— publication PMC11823630, “In vitro potentiation of tetracyclines in Pseudomonas aeruginosa by RW01, a new cyclic peptide” (Antimicrobial Agents and Chemotherapy, 2024)
